Patent US20240174662A1, “SMALL MOLECULE INHIBITORS OF SALT INDUCIBLE KINASES” (Janssen Biotech, Inc., priority 2021, published 2024)

What follows are molecules tested against SIK2 (Homo sapiens (Human), UniProt Q9H0K1) (assay: SIK2 Enzymatic Assay Version 2 (High ATP)). Settings: 3 mM ATP and 200 μM HDAC5tide final, ADP-Glo Max luminescence.
Format: biochemical
In short: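 Luminescent ADP-Glo Max read-out: depletion reagent 2 h, then detection reagent 1 h. Before the reaction, compounds were incubated 30 min with enzyme added at 6 nM (twice final concentration), with all steps at room temperature.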

SIK2, sequence (Q9H0K1 whole entry, species assumed): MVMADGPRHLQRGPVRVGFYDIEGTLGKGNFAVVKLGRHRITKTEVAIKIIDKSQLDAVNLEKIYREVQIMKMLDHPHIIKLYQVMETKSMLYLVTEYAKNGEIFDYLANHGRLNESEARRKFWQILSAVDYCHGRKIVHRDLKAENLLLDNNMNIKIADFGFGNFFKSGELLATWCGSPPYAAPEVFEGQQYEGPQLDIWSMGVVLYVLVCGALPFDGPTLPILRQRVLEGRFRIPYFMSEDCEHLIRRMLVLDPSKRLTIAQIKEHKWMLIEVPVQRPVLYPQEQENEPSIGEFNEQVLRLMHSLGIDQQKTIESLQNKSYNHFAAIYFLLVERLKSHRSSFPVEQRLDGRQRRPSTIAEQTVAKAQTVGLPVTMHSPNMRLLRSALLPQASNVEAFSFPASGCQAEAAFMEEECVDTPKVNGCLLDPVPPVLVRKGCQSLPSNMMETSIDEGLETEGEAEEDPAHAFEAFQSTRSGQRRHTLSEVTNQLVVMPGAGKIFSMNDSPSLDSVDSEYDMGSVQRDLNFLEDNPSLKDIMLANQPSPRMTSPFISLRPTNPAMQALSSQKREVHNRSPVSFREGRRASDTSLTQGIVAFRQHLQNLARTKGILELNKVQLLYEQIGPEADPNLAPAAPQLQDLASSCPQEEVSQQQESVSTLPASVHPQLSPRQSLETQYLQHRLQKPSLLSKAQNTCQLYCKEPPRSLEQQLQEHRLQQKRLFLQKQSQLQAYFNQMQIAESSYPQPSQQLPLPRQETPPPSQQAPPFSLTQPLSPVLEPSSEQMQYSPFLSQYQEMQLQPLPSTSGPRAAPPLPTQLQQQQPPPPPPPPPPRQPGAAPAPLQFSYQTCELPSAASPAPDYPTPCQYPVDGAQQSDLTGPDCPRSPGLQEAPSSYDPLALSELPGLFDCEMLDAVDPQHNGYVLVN

IC50 [nM] | Compound
14.4 | Cc1cc(Nc2cc3cc(-c4c(O[C@@H]5CN[C@H](C)C5)noc4C)ccn3n2)nc(C)n1 [Example 90, N-(2,6-dimethylpyrimidin-4-yl)-5-[5-methyl-3-[(3S,5R)-5-methylpyrrolidin-3-yl]oxy-isoxazol-4-yl]pyrazolo[1,5-a]pyridin-2-amine]
6.4 | Cc1cc(Nc2cc3cc(-c4c(OC[C@H]5CCN5C)noc4C)ccn3n2)nc(C)n1 [Example 91, N-(2,6-dimethylpyrimidin-4-yl)-5-[5-methyl-3-[[(2R)-1-methylazetidin-2-yl]methoxy]isoxazol-4-yl]pyrazolo[1,5-a]pyridin-2-amine]
4.3 | Cc1cc(Nc2cc3cc(-c4c(O[C@@H]5CNC[C@@H]5F)noc4C)ccn3n2)nc(C)n1 [Example 92, N-(2,6-dimethylpyrimidin-4-yl)-5-[3-[(3R,4S)-4-fluoropyrrolidin-3-yl]oxy-5-methyl-isoxazol-4-yl]pyrazolo[1,5-a]pyridin-2-amine]
4.7 | Cc1cc(Nc2cc3cc(-c4c(O[C@@H]5CNC[C@@H]5F)noc4C)ccn3n2)nnc1C [Example 93, N-(5,6-dimethylpyridazin-3-yl)-5-[3-[(3R,4S)-4-fluoropyrrolidin-3-yl]oxy-5-methyl-isoxazol-4-yl]pyrazolo[1,5-a]pyridin-2-amine]
10.3 | CO[C@H]1CNC[C@H]1Oc1noc(C)c1-c1ccn2nc(Nc3cc(C)nc(C)n3)cc2c1 [Example 94, N-(2,6-dimethylpyrimidin-4-yl)-5-[3-[(3R,4S)-4-methoxypyrrolidin-3-yl]oxy-5-methyl-isoxazol-4-yl]pyrazolo[1,5-a]pyridin-2-amine]
5.3 | CO[C@H]1CNC[C@H]1Oc1noc(C)c1-c1ccn2nc(Nc3cc(C)c(C)nn3)cc2c1 [Example 95, N-(5,6-dimethylpyridazin-3-yl)-5-[3-[(3R,4S)-4-methoxypyrrolidin-3-yl]oxy-5-methyl-isoxazol-4-yl]pyrazolo[1,5-a]pyridin-2-amine]
6.8 | CO[C@H]1CNC[C@H]1Oc1cnn(C(F)F)c1-c1ccn2nc(Nc3cc(C)nc(C)n3)cc2c1 [Example 96, 5-[2-(difluoromethyl)-4-[(3R,4S)-4-methoxypyrrolidin-3-yl]oxy-pyrazol-3-yl]-N-(2,6-dimethylpyrimidin-4-yl)pyrazolo[1,5-a]pyridin-2-amine]
2.9 | COc1nnc(Nc2cc3cc(-c4c(OC[C@H]5CCN5C)cnn4C(F)F)ccn3n2)cc1C [Example 97, 5-[2-(difluoromethyl)-4-[[(2R)-1-methylazetidin-2-yl]methoxy]pyrazol-3-yl]-N-(6-methoxy-5-methyl-pyridazin-3-yl)pyrazolo[1,5-a]pyridin-2-amine]
7.9 | Cc1ccc(Nc2cc3cc(-c4c(OC[C@H]5CCN5C)cnn4C(F)F)ccn3n2)nn1 [Example 98, 5-[2-(difluoromethyl)-4-[[(2R)-1-methylazetidin-2-yl]methoxy]pyrazol-3-yl]-N-(6-methylpyridazin-3-yl)pyrazolo[1,5-a]pyridin-2-amine]
10.9 | Cc1cc(Nc2cc3cc(-c4c(OC[C@H]5OCC[C@@H]5O)cnn4C(F)F)ccn3n2)nc(C)n1 [Example 99, (2R,3S)-2-[[1-(difluoromethyl)-5-[2-[(2,6-dimethylpyrimidin-4-yl)amino]pyrazolo[1,5-a]pyridin-5-yl]pyrazol-4-yl]oxymethyl]tetrahydrofuran-3-ol]
< 0.847 | Cc1cc(Nc2cc3cc(-c4c(OC[C@H]5CCN5C)cnn4C)ccn3n2)nc(C(F)F)n1 [Example 102, N-[2-(difluoromethyl)-6-methyl-pyrimidin-4-yl]-5-[2-methyl-4-[[(2R)-1-methylazetidin-2-yl]methoxy]pyrazol-3-yl]pyrazolo[1,5-a]pyridin-2-amine]
< 0.847 | CCN1CC[C@@H]1COc1cnn(C)c1-c1ccn2nc(Nc3cc(C)nc(C(F)F)n3)cc2c1 [Example 103, N-[2-(difluoromethyl)-6-methyl-pyrimidin-4-yl]-5-[4-[[(2R)-1-ethylazetidin-2-yl]methoxy]-2-methyl-pyrazol-3-yl]pyrazolo[1,5-a]pyridin-2-amine]
16.9 | CCN1CC[C@@H]1COc1cnn(C(F)F)c1-c1ccn2nc(Nc3cnn(C)c3)cc2c1 [Example 104, 5-[2-(difluoromethyl)-4-[[(2R)-1-ethylazetidin-2-yl]methoxy]pyrazol-3-yl]-N-(1-methylpyrazol-4-yl)pyrazolo[1,5-a]pyridin-2-amine]
43.1 | CN1CC[C@H](Oc2cnn(C)c2-c2ccn3nc(NC(=O)C4CC4)cc3c2)C1 [Example 105, N-[5-[2-methyl-4-[(3S)-1-methylpyrrolidin-3-yl]oxy-pyrazol-3-yl]pyrazolo[1,5-a]pyridin-2-yl]cyclopropanecarboxamide]
2.4 | CN1CC[C@@H]1COc1cnn(C)c1-c1ccn2nc(Nc3ccc(C(=O)NCC(C)(C)O)cn3)cc2c1 [Example 106, N-(2-hydroxy-2-methyl-propyl)-6-[[5-[2-methyl-4-[[(2R)-1-methylazetidin-2-yl]methoxy]pyrazol-3-yl]pyrazolo[1,5-a]pyridin-2-yl]amino]pyridine-3-carboxamide]
3.3 | COCCNC(=O)c1ccc(Nc2cc3cc(-c4c(OC[C@H]5CCN5C)cnn4C)ccn3n2)nc1 [Example 107, N-(2-methoxyethyl)-6-[[5-[2-methyl-4-[[(2R)-1-methylazetidin-2-yl]methoxy]pyrazol-3-yl]pyrazolo[1,5-a]pyridin-2-yl]amino]pyridine-3-carboxamide]
3.3 | Cc1nc(Nc2cc3cc(-c4c(OC[C@H]5CCN5C)cnn4C)ccn3n2)cc(C(=O)N(C)C)n1 [Example 108, N,N,2-trimethyl-6-[[5-[2-methyl-4-[[(2R)-1-methylazetidin-2-yl]methoxy]pyrazol-3-yl]pyrazolo[1,5-a]pyridin-2-yl]amino]pyrimidine-4-carboxamide]
6.2 | CNC(=O)c1nc(C)cc(Nc2cc3cc(-c4c(OC[C@H]5CCN5C)cnn4C)ccn3n2)n1 [Example 109, N,4-dimethyl-6-[[5-[2-methyl-4-[[(2R)-1-methylazetidin-2-yl]methoxy]pyrazol-3-yl]pyrazolo[1,5-a]pyridin-2-yl]amino]pyrimidine-2-carboxamide]
2.8 | Cc1cc(Nc2cc3cc(-c4c(OC[C@H]5CCN5C)cnn4C)ccn3n2)nc(C(=O)N(C)C)n1 [Example 110, N,N,4-trimethyl-6-[[5-[2-methyl-4-[[(2R)-1-methylazetidin-2-yl]methoxy]pyrazol-3-yl]pyrazolo[1,5-a]pyridin-2-yl]amino]pyrimidine-2-carboxamide]
1.3 | Cc1cc(C(=O)NCC(C)(C)O)cc(Nc2cc3cc(-c4c(OC[C@H]5CCN5C)cnn4C)ccn3n2)n1 [Example 111, N-(2-hydroxy-2-methyl-propyl)-2-methyl-6-[[5-[2-methyl-4-[[(2R)-1-methylazetidin-2-yl]methoxy]pyrazol-3-yl]pyrazolo[1,5-a]pyridin-2-yl]amino]pyridine-4-carboxamide]
2.7 | Cc1cc(C(=O)NC(C)C)cc(Nc2cc3cc(-c4c(OC[C@H]5CCN5C)cnn4C)ccn3n2)n1 [Example 112, N-isopropyl-2-methyl-6-[[5-[2-methyl-4-[[(2R)-1-methylazetidin-2-yl]methoxy]pyrazol-3-yl]pyrazolo[1,5-a]pyridin-2-yl]amino]pyridine-4-carboxamide]
22.3 | Cc1cc(Nc2cc3cc(-c4c(OC[C@H]5CCN5C)cnn4C)ccn3n2)nc(C(=O)NCC(C)(C)O)c1 [Example 113, N-(2-hydroxy-2-methyl-propyl)-4-methyl-6-[[5-[2-methyl-4-[[(2R)-1-methylazetidin-2-yl]methoxy]pyrazol-3-yl]pyrazolo[1,5-a]pyridin-2-yl]amino]pyridine-2-carboxamide]
1.1 | CN1CC[C@@H]1COc1cnn(C)c1-c1ccn2nc(Nc3ccc4c(n3)CCOC4)cc2c1 [Example 114, N-[5-[2-methyl-4-[[(2R)-1-methylazetidin-2-yl]methoxy]pyrazol-3-yl]pyrazolo[1,5-a]pyridin-2-yl]-7,8-dihydro-5H-pyrano[4,3-b]pyridin-2-amine]
9 | COCCNC(=O)c1cnc(Nc2cc3cc(-c4c(OC[C@H]5CCN5C)cnn4C)ccn3n2)cn1 [Example 115, N-(2-methoxyethyl)-5-[[5-[2-methyl-4-[[(2R)-1-methylazetidin-2-yl]methoxy]pyrazol-3-yl]pyrazolo[1,5-a]pyridin-2-yl]amino]pyrazine-2-carboxamide]
< 0.847 | Cc1cc(Nc2cc3cc(-c4c(OC[C@H]5CCN5C)cnn4C)ccn3n2)nc(-c2cccnc2)n1 [Example 116, 5-[2-methyl-4-[[(2R)-1-methylazetidin-2-yl]methoxy]pyrazol-3-yl]-N-[6-methyl-2-(3-pyridyl)pyrimidin-4-yl]pyrazolo[1,5-a]pyridin-2-amine]
8.8 | CN1CC[C@@H]1COc1cnn(C)c1-c1ccn2nc(Nc3cnc(C(F)(F)F)cn3)cc2c1 [Example 117, 5-[2-methyl-4-[[(2R)-1-methylazetidin-2-yl]methoxy]pyrazol-3-yl]-N-[5-(trifluoromethyl)pyrazin-2-yl]pyrazolo[1,5-a]pyridin-2-amine]
1.9 | CN1CC[C@@H]1COc1cnn(C)c1-c1ccn2nc(Nc3ccnc(C(F)(F)F)n3)cc2c1 [Example 118, 5-[2-methyl-4-[[(2R)-1-methylazetidin-2-yl]methoxy]pyrazol-3-yl]-N-[2-(trifluoromethyl)pyrimidin-4-yl]pyrazolo[1,5-a]pyridin-2-amine]
1.6 | COc1nccc(Nc2cc3cc(-c4c(OC[C@H]5CCN5C)cnn4C)ccn3n2)n1 [Example 119, N-(2-methoxypyrimidin-4-yl)-5-[2-methyl-4-[[(2R)-1-methylazetidin-2-yl]methoxy]pyrazol-3-yl]pyrazolo[1,5-a]pyridin-2-amine]
23.7 | CNC(=O)c1cc(Nc2cc3cc(-c4c(OC[C@H]5CCN5C)cnn4C)ccn3n2)nc(C)n1 [Example 120, N,2-dimethyl-6-[[5-[2-methyl-4-[[(2R)-1-methylazetidin-2-yl]methoxy]pyrazol-3-yl]pyrazolo[1,5-a]pyridin-2-yl]amino]pyrimidine-4-carboxamide]
